Results published in US10954239B2, “Imidazoquinoline amine derivatives, pharmaceutical compositions and therapeutic methods thereof” (CanWell Biotech Limited, priority 2019, dated 2021).
Where two headings read alike, the source gives them in different places.

Test system: human PBMC
Experiment: TLR7/8 agonists induce cytokine release in human PBMC (ELISA of culture supernatant, 24 h)
Format: cell-based
Settings: minimum effective concentration: lowest concentration inducing cytokine at least 2x negative control, tested 0.0152-100 μM
Procedure: Example 13. TLR7/8 agonists induce IFN-gamma and TNF-alpha release in human PBMC
The system is used to assess the cytokines release. Activity is based on the measurement of interferon-gamma (IFN-γ) and tumor necrosis factor-alpha (TNF-α) secreted into culture media.
Fresh human blood was diluted with the same volume of PBS, 15 mL Lymphoprep was added into a Sepmate tube, then 30 mL diluted blood was added on the top gently without disturbing the interface.
The Sepmate tube was centrifuged for 25 min at 1000×g at RT with brake off.
The buffy coat containing peripheral blood mononuclear cells (PBMCs) was collected from Sepmate tube and transferred into a new tube, and the cells were washed with 40 mL PBS twice and centrifuged at 350×g for 5 min.
PBMCs were resuspended in complete culture medium at a density of 2E6/mL.
The compounds are solubilized in dimethyl sulfoxide (DMSO) and diluted into indicated concentration with complete culture medium.
2*10^5 PBMCs (in 100 μL) were added to each well of 96-well flat bottom plate.
2× final concentration of 3-fold serial diluted compounds (in 100 μL) were added to indicated wells and final volume was 200 μL.
The plate was covered with sterile lids, mixed gently and then incubated for 24 h at 37° C./5% CO2 incubator.
Following incubation, the plates was centrifuged for 5 min. at 400×g. The cell-free culture Supernatant was removed into a non-sterile polypropylene plate. Samples are maintained at −80° C. until analysis. The samples were analyzed for TNF-α and IFN-γ by ELISA according to the direction.
TNF-α and IFN-α were analyzed by ELISA. IFN-α concentration was determined by ELISA using a Human IFN-α ELISA Kit from R&D Systems (Catalog #41100-2) and read on VICTOR Nivo™ from PerkinElmer. Results were expressed in pg/mL. TNF-α concentration was determined by ELISA using a Human TNF-alpha ELISA MAX™ Deluxe from BioLegend (Catalog #430205) and read on VICTOR Nivo™ from PerkinElmer. Results were expressed in pg/mL.
Specifically, the MEC of each compound (micromolar) was determined as the lowest concentration of the compound that induced a measured cytokine response at a level ([…]) that was at least 2× greater than that observed with the negative control wells.

[1] = read-out: MEC to induce cytokine: IFN-alpha
[2] = read-out: MEC to induce cytokine: TNF-alpha

Row | SMILES | minimal effective concentration [1] [µM] | minimal effective concentration [2] [µM]
1 | CCCCCCCCCCCCCCCCCNC(=O)C(=O)N(CCCCOn1c(CCCC)nc2c(N)nc3ccccc3c21)CCCN(C)C [Example 6, N1-(4-((4-amino-2-butyl-1H-imidazo[4,5-c]quinolin-1-yl)oxy)butyl)-N1-(3-(dimethylamino)propyl)-N2-heptadecyloxalamide] | > 100 | > 100
2 | CCCCCCCCCCCCCCCCCNC(=O)C(=O)NCCCCOn1c(CCCC)nc2c(N)nc3ccccc3c21 [Example 1, N1-(4-((4-amino-2-butyl-1H-imidazo[4,5-c]quinolin-1-yl)oxy)butyl)-N2-heptadecyloxalamide] | > 33.3 | 11.1
3 | CCCCCCCCCCCCCCCCCN(CCCN(C)C)c1c(NCCCCOn2c(CCCC)nc3c(N)nc4ccccc4c32)c(=O)c1=O [Example 12, 3-(4-(4-amino-2-butyl-1H-imidazo[4,5-c]quinolin-1-yloxy)butylamino)-4-((3-(dimethylamino)propyl)(heptadecyl)amino)cyclobut-3-ene-1,2-dione] | 0.0152 | 0.41
4 | CCCCCCCCCCCCCCCCCCN(CCCCOn1c(CCCC)nc2c(N)nc3ccccc3c21)CCCN(C)C [Example 5, N1-(4-((4-amino-2-butyl-1H-imidazo[4,5-c]quinolin-1-yl)oxy)butyl)-N3,N3-dimethyl-N1-octadecylpropane-1,3-diamine] | 1.23 | 11.1
5 | CCCCCCCCCCCCCCCCCNc1c(NCCCCOn2c(CCCC)nc3c(N)nc4ccccc4c32)c(=O)c1=O [Example 2, 3-((4-((4-amino-2-butyl-1H-imidazo[4,5-c]quinolin-1-yl)oxy)butyl)amino)-4-(heptadecylamino)cyclobut-3-ene-1,2-dione] | 0.0152 | 0.0457
6 | CCCCCCCCCCCCCCCCCc1noc(CCCCOn2c(CCCC)nc3c(N)nc4ccccc4c32)n1 [Example 11, 2-butyl-1-(4-(3-heptadecyl-1,2,4-oxadiazol-5-yl)butoxy)-1H-imidazo[4,5-c]quinolin-4-amine] | 11.1 | 33.3
7 | CCCCCCCCCCCCCCCCCNc1c(N(CCCCOn2c(CCCC)nc3c(N)nc4ccccc4c32)CCCN(C)C)c(=O)c1=O [Example 7, 3-((4-((4-amino-2-butyl-1H-imidazo[4,5-c]quinolin-1-yl)oxy)butyl)(3-(dimethylamino)propyl)amino)-4-(heptadecylamino)cyclobut-3-ene-1,2-dione] | 0.0152 | 0.41
8 | CCCCCCCCCCCCCCCCCc1nc(CCCCOn2c(CCCC)nc3c(N)nc4ccccc4c32)no1 [Example 10, 2-butyl-1-(4-(5-heptadecyl-1,2,4-oxadiazol-3-yl)butoxy)-1H-imidazo[4,5-c]quinolin-4-amine] | 11.1 | 3.7
9 | CCCCCCCCCCCCCCCCN1CCC(C(=O)NCCCCOn2c(CCCC)nc3c(N)nc4ccccc4c32)CC1 [Example 3, N-(4-((4-amino-2-butyl-1H-imidazo[4,5-c]quinolin-1-yl)oxy)butyl)-1-hexadecylpiperidine-4-carboxamide] | 0.137 | 0.137
